From US10537103B2, “Antibacterial composition containing an isomer mixture of monosaccharide alkyl monoacetals or monoethers” (TEREOS STARCH & SWEETENERS BELGIUM, priority 2014, dated 2020)
In brackets after ≈: the same amount, converted by molar mass. Read-outs that look alike come from different tables or passages of the source.

Columns and labels:
[1] = tested on: E. faecalis strains (ATCC 29212, 9901, 1801); test: MIC on a wider panel of strains (Example 10), microdilution; assay type: cell-based; details: Enterococcus faecalis, ATCC29212
Method: The cultures studied, freshly isolated (after incubation on a blood agar at 37° C. for 18 h), are taken up in sterile water (10 mL) until obtaining a 0.5 McFarland (Mc) suspension i.e. 1 to 1 to 2×10^8 CFU (bacteria)/cm^3. The bacterial suspension was then diluted to obtain a final concentration of 1×10^6 CFU/cm^3. Each well contains an identical quantity of Mueller-Hinton medium (a rich medium for bacterial culture) and bacteria with final [concentration of] 0.5×10^6 CFU/cm^3. The test compounds of interest are solubilized in ethanol or DMSO at 25 mg/mL before being diluted to different concentrations two by two. On the multiwell plate, a first series has been planned comprising the culture medium without the test compound of interest. It corresponds to the growth control (control well). These controls serve as reference for comparing bacterial growth with that of the subsequent wells comprising different concentrations of the test compound of interest. The second series of wells comprises the mother solution for the test compound of interest for a concentration in the wells of 256 mg/L (7 mM). Each series of wells was diluted two by two until the last series for a final concentration of 0.25 mg/L (0.0007 mM). Each concentration is duplicated in the same plate. The plate is incubated for 18 h at 37° C. […] If there is antibacterial activity, the bacterial growth is inhibited, which means that no turbidity or bacterial residue is present. The minimum inhibitory concentrations (MIC) are tested on Gram-positive bacterial strains according to the recommendations of the “Clinical Laboratory Standards Institute” (Clinical-Laboratory-Standards-Institute, 6th ed. Approved standard M100-S17. CLSI, Wayne, Pa., 2007). The clinical strains have been isolated in the Hospice de Lyon. Enterococci: E. faecalis (ATCC® 29212™), clinical enterococci strains E. faecalis isolated from urines: strain 015206179901 (hereinafter 9901), strain 015205261801 (hereinafter 1801) The cultures studied, freshly isolated (after incubation on a blood agar at 37° C. for 18 h), are taken up in sterile water (10 mL) until obtaining a 0.5 McFarland (Mc) suspension i.e. At 10^8 CFU (bacteria)/cm^3. The bacterial suspension was then diluted to obtain a final concentration of 10^6 CFU/cm^3.

[2] = tested on: Staphylococcus S. aureus strains (ATCC, methicillin-resistant, daptomycin-resistant); test: as above; assay type: cell-based
Method: (§1) The cultures studied, freshly isolated (after incubation on a blood agar at 37° C. for 18 h), are taken up in sterile water (10 mL) until obtaining a 0.5 McFarland (Mc) suspension i.e. 1 to 1 to 2×10^8 CFU (bacteria)/cm^3. The bacterial suspension was then diluted to obtain a final concentration of 1×10^6 CFU/cm^3.
(§2) Each well contains an identical quantity of Mueller-Hinton medium (a rich medium for bacterial culture) and bacteria with final [concentration of] 0.5×10^6 CFU/cm^3.
(§3) The test compounds of interest are solubilized in ethanol or DMSO at 25 mg/mL before being diluted to different concentrations two by two. On the multiwell plate, a first series has been planned comprising the culture medium without the test compound of interest. It corresponds to the growth control (control well). These controls serve as reference for comparing bacterial growth with that of the subsequent wells comprising different concentrations of the test compound of interest. The second series of wells comprises the mother solution for the test compound of interest for a concentration in the wells of 256 mg/L (7 mM). Each series of wells was diluted two by two until the last series for a final concentration of 0.25 mg/L (0.0007 mM). Each concentration is duplicated in the same plate. The plate is incubated for 18 h at 37° C. […] If there is antibacterial activity, the bacterial growth is inhibited, which means that no turbidity or bacterial residue is present.
(§4) The minimum inhibitory concentrations (MIC) are tested on Gram-positive bacterial strains according to the recommendations of the “Clinical Laboratory Standards Institute” (Clinical-Laboratory-Standards-Institute, 6th ed. Approved standard M100-S17. CLSI, Wayne, Pa., 2007). The clinical strains have been isolated in the Hospice de Lyon.
Staphylococci S. aureus: ATCC® 29213™, ATCC 25923,
as §1, with “At 10^8” for “1 to 1 to 2×10^8”, “10^6” for “1×10^6”

[3] = tested on: E. faecium strains (CIP 103510, Van A, 1401); test: MIC on a wider panel of strains (Example 10), microdilution; assay type: cell-based; details: Enterococcus faecium, CIP103510
Method: as §1, §2, §3, §4
Enterococci: E. faecium (CIP 103510), clinical strains of Enterococci E. faecium: Van A 0151850763 (hereinafter Van A); strain 015 205731401 (hereinafter 1401),
as §1, with “At 10^8” for “1 to 1 to 2×10^8”, “10^6” for “1×10^6”

[4] = E. faecalis ATCC 29212, read-out: MIC Enterococcus ATCC 29212
[5] = methicillin-resistant, HT 2002-0417, read-out: MIC S. aureus HT 2002-0417
[6] = methicillin-resistant, HT 2006-1004, read-out: MIC S. aureus HT 2006-1004
[7] = methicillin-resistant, LY 199-0053, read-out: MIC S. aureus LY 199-0053
[8] = methicillin-resistant, Lac-Deleo USA 300, read-out: MIC S. aureus USA 300
[9] = methicillin-resistant, MU 3, read-out: MIC S. aureus MU 3
[10] = strain ATCC 25923, read-out: MIC S. aureus ATCC 25923
[11] = strain ATCC 29213, read-out: MIC S. aureus ATCC 29213
[12] = E. faecium CIP 103510, read-out: MIC Enterococcus CIP 103510
[13] = E. faecium clinical strain Van A 0151850763, read-out: MIC Enterococcus Van A

MIC [1, 4] | MIC ([2]; Staphylococcus, all strains of Table 6, read-out: MIC, staphylococcus strains tested) | MIC [2, 5] | MIC ([2]; methicillin-resistant, HT 2004-0012, read-out: MIC S. aureus HT 2004-0012) | MIC [2, 6] | MIC [2, 7] | MIC [2, 8] | MIC [2, 9] | MIC [2, 10] | MIC [2, 11] | melting point | MIC [3, 12] | MIC [3, 13] | MIC ([1]; E. faecalis clinical strain 015205261801, from urines, read-out: MIC Enterococcus 1801) | MIC ([1]; E. faecalis clinical strain 015206179901, from urines, read-out: MIC Enterococcus 9901) | MIC ([2]; daptomycin-resistant, ST 2014 1288, read-out: MIC S. aureus ST 2014 1288) | MIC ([2]; daptomycin-resistant, ST 2015-0188, read-out: MIC S. aureus ST 2015 0188) | MIC ([2]; daptomycin-resistant, ST 2015-0989, read-out: MIC S. aureus ST 2015 0989) | MIC ([3]; E. faecium clinical strain 015 205731401, read-out: MIC Enterococcus 1401) | Structure (SMILES)
256 µg/mL (≈ 710 µM) | > 256 µg/mL | 256 µg/mL (≈ 710 µM) | 256 µg/mL (≈ 710 µM) | 256 µg/mL (≈ 710 µM) | 256 µg/mL (≈ 710 µM) | 256 µg/mL (≈ 710 µM) | 256 µg/mL (≈ 710 µM) | 256 µg/mL (≈ 710 µM) | 256 µg/mL (≈ 710 µM) | 69 °C | 256 µg/mL (≈ 710 µM) | 256 µg/mL (≈ 710 µM) |  |  |  |  |  |  | CCCCCCCCCCCC1OCC2O[C@H](OC)C(O)C(O)[C@@H]2O1 (stereo partly drawn) [Compound 1e, Methyl 4,6-O-Dodecylidene α-D-glucopyranoside]
64 µg/mL (≈ 178 µM) |  | 128 µg/mL (≈ 355 µM) |  | 64 µg/mL (≈ 178 µM) | 64 µg/mL (≈ 178 µM) | 64 µg/mL (≈ 178 µM) | 64 µg/mL (≈ 178 µM) | 64 µg/mL (≈ 178 µM) | 64 µg/mL (≈ 178 µM) | 84 °C | 32 µg/mL (≈ 88.8 µM) | 32 µg/mL (≈ 88.8 µM) | 8 µg/mL (≈ 22.2 µM) | 32 µg/mL (≈ 88.8 µM) | 64 µg/mL (≈ 178 µM) | 64 µg/mL (≈ 178 µM) | 64 µg/mL (≈ 178 µM) | 16 µg/mL (≈ 44.4 µM) | CCCCCCCCCCCC1OCC2O[C@@H](OC)C(O)C(O)[C@@H]2O1 (stereo partly drawn) [Compound 1f, Methyl 4,6-O-Dodecylidene β-D-glucopyranoside]
